System: HL60 cells
Experiment: On-chip TMR study: laser-enhanced TMR fluorescence response of docked cells in tapered microchannel device
Type: cell-based
Details: Homo sapiens, HL-60, light or radiation study; HL60 cells docked on upper sandbag, on-chip serial dilution of TMR, fast Helium-Neon laser irradiation (~70 ms/ROI) for 3 more minutes; 50% intensity; read-out: EC50 of TMR concentration required to trigger the enhanced fluorescence response
Text: It was the highly compact design of this microdevice that facilitated the comparative study between large amounts of cells on two sandbag components. […] However, only a region of interest (ROI) on the upper sandbag was subjected to fast laser irradiation (˜70 ms/ROI of Helium-Neon laser) for 3 more minutes. A confocal image of both sandbags after the fast irradiation was developed.
Furthermore, despite the large ROI coverage over the upper sandbag, the enhanced response was evidenced for the cells incubated at higher TMR concentration near the sandbag rear. Therefore, the conclusion is that the enhanced response was at least related to 1) concentration of TMR and 2) the amount of laser irradiation.
Referring to FIG. 30, photomicrographs are shown one on top of the other, with the top photomicrograph showing cells docked on both sandbags but only those encircled by the black dotted framework are subjected to laser irradiation. […] The purpose of these photomicrographs is to show the power of the microchip to perform rapid analysis and retrieve effective concentration of a photodynamic therapy drug candidate that is sensitive to light irradiation.
The response profiles of cells docked on the upper and lower sandbags of FIG. 30 are plotted in FIG. 31. […] Note further that there is an average peak in intensity at a 3.73 μM at 50% intensity. […]

`CN(C)c1ccc2c(-c3ccc(CCl)cc3)c3ccc(=[N+](C)C)cc-3oc2c1` [TMR, Tetramethylrosamine] showed an EC50 of 3.73 µM.
